Read-outs that look alike come from different tables or passages of the source.
How the values were obtained:
A2780 cells = test: In-vitro cell proliferation assay (SRB, 72 hours); format: cell-based; details: sulforhodamine B (SRB) assay
Description: In-Vitro Cell Proliferation Assay
After overnight incubation at 37° C. and 5% CO2, the compound titrations were performed in a separate dilution plate by serially diluting the compounds in DMSO to make a 1000× stock. The compounds were then further diluted to 10× final concentration in culture media, whereupon 20 μL of each dilution was added to the plated cells with controls (e.g. DMSO and blank) to make a final volume of 200 μL. The final DMSO concentration in each well was 0.1%. The plates were then incubated for 72 hours at 37° C. in a 5% CO2 incubator. The number of viable cells was then assessed using sulforhodamine B (SRB) assay. Cells were fixed at 4° C. for 1 hour with the addition of 50 μL 30% trichloroacetic acid (TCA) to make a final concentration of 6% TCA. The plates were washed four times with H2O and allowed to dry for at least 1 hour, whereupon 100 μL of a 4% SRB in 1% acetic acid solution was added to each well and incubated at room temperature for at least 30 minutes. The plates were then washed three times with 1% acetic acid, dried, and treated with 100 μL of 10 mM Tris-Base solution. The plates were then read in a microplate reader at an absorbance of 570 nm. Background was generated on a separate plate with media only.
Method for Determining % Inhibition
First, the signals from the background plate are averaged, then the background was subtracted from the test plates.
wherein x denotes the average signal of the compound-treated cells and y denotes the average signal of the DMSO-treated cells.
wherein X denotes the compound concentration 1, Y denotes the compound concentration 2, XX denotes the % inhibition at compound concentration 1 (X), and YY denotes the % inhibition at compound concentration 2 (Y).

[1] = biological target: T1, Recombinant His-tagged NAMPT (Homo sapiens, UniProt P43490); test: Biochemical inhibition assay: NAMPT enzymatic reaction, NMN quantified by mass spectrometry; details: 33 nM NAMPT, 1 μM NAM, 100 μM PRPP, 30 minutes at room temperature, read-out: Biochem IC50
T1 construct: His; host or cells: E. coli
Description: Biochemical Inhibition Assay
NAMPT Protein Purification
Recombinant His-tagged NAMPT was produced in E. coli cells, purified over a Ni column, and further purified over a size-exclusion column by XTAL Biostructures.
The NAMPT Enzymatic Reaction
The NAMPT enzymatic reactions were carried out in Buffer A (50 mM Hepes pH 7.5, 50 mM NaCl, 5 mM MgCl2, and 1 mM THP) in 96-well V-bottom plates. The compound titrations were performed in a separate dilution plate by serially diluting the compounds in DMSO to make a 100× stock. […] The compound and enzyme mix was incubated for 15 minutes at room temperature, then 10 μL of 10× substrate and co-factors in Buffer A were added to the test well to make a final concentration of 1 μM NAM, 100 μM 5-Phospho-D-ribose 1-diphosphate (PRPP), and 2.5 mM Adenosine 5′-triphosphate (ATP). The reaction was allowed to proceed for 30 minutes at room temperature, then was quenched with the addition of 11 μL of a solution of formic acid and L-Cystathionine to make a final concentration of 1% formic acid and 10 μM L-Cystathionine. Background and signal strength was determined by addition (or non-addition) of a serial dilution of NMN to a pre-quenched enzyme and cofactor mix.
A mass spectrometry-based assay was used to measure the Nampt reaction product (NMN) and the internal control (L-Cystathionine). NMN and L-Cystathionine were detected using the services of Biocius Lifesciences with the RapidFire system. In short, the NMN and L-Cystathionine are bound to a graphitic carbon cartridge in 0.1% formic acid, eluted in 30% acetonitrile buffer, and injected into a Sciex 4000 mass spectrometer. The components of the sample were ionized with electrospray ionization and the positive ions were detected. […] The fragments are quantified and the analyzed by the following method.
First the NMN signal is normalized to the L-Cystathionine signal by dividing the NMN signal by the L-Cystathionine signal for each well. The signal from the background wells are averaged and subtracted from the test plates.
Wherein x denotes the average signal of the compound treated wells and y denotes the average signal of the DMSO treated wells.
IC50s are Determined Using Excel and this Formula.
Wherein X denotes the compound concentration 1, Y denotes the compound concentration 2, XX denotes the % inhibition at compound concentration 1 (X), and YY denotes the % inhibition at compound concentration 2 (Y).

T1 sequence (P43490 whole entry): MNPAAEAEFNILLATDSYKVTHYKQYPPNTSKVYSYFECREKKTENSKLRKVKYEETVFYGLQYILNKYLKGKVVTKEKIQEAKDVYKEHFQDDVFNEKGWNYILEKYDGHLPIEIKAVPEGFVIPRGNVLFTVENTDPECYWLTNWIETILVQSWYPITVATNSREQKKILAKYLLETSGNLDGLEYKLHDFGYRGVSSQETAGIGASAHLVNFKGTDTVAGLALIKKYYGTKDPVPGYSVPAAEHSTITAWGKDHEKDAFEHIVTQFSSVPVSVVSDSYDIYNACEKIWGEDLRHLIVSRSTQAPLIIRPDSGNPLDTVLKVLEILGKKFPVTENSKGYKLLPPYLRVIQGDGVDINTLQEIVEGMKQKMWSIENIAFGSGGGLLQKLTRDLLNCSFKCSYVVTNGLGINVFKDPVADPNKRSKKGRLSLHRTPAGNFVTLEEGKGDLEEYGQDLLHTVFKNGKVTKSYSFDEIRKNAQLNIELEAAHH

Compound	IC50 (A2780 cells; Homo sapiens)	IC50 ([1]; 2.5 mM ATP)	IC50 (A2780 cells)	IC50 ([1]; […] ATP)
O=C(NCCCCC1CCN(C(=O)c2ccc3cc[nH]c3c2)CC1)c1cc2cnccc2[nH]1 [N-(4-{1-[(1H-indol-6-yl)carbonyl]piperidin-4-yl}butyl)-1H-pyrrolo[3,2-c]pyridine-2-carboxamide]	13.4 nM	52.9 nM		
O=C(NCCCCC1CCN(C(=O)c2ccc3cc[nH]c3c2)CC1)c1ccc2nccn2c1 [N-(4-{1-[(1H-indol-6-yl)carbonyl]piperidin-4-yl}butyl)imidazo[1,2-a]pyridine-6-carboxamide]	14.9 nM	29.8 nM		
O=C(NCCCCC1CCN(C(=O)c2ccc3cc[nH]c3c2)CC1)c1cc2ccncc2s1 [N-(4-{1-[(1H-indol-6-yl)carbonyl]piperidin-4-yl}butyl)thieno[2,3-c]pyridine-2-carboxamide]	70.3 nM	36.1 nM		
O=C(NCCCCC1CCN(C(=O)c2cccc(Cl)c2Cl)CC1)c1cc2cnccc2[nH]1 [N-(4-{1-[(2,3-dichlorophenyl)carbonyl]piperidin-4-yl}butyl)-1H-pyrrolo[3,2-c]pyridine-2-carboxamide]	3.2 nM	31.2 nM		
O=C(NCCCCC1CCN(C(=O)c2cccc(Cl)c2Cl)CC1)c1cc2ccncc2s1 [N-(4-{1-[(2,3-dichlorophenyl)carbonyl]piperidin-4-yl}butyl)thieno[2,3-c]pyridine-2-carboxamide]	6.7 nM	20.1 nM		
O=C(NCCCCC1CCN(C(=O)c2cccc(F)c2F)CC1)c1cc2cnccc2[nH]1 [N-(4-{1-[(2,3-difluorophenyl)carbonyl]piperidin-4-yl}butyl)-1H-pyrrolo[3,2-c]pyridine-2-carboxamide]	3.4 nM	12.1 nM		
O=C(NCCCCC1CCN(C(=O)c2cccc(F)c2F)CC1)c1ccc2nccn2c1 [N-(4-{1-[(2,3-difluorophenyl)carbonyl]piperidin-4-yl}butyl)imidazo[1,2-a]pyridine-6-carboxamide]	10.1 nM	7.9 nM		
O=C(NCCCCC1CCN(C(=O)c2cccc(F)c2F)CC1)c1cc2ccncc2s1 [N-(4-{1-[(2,3-difluorophenyl)carbonyl]piperidin-4-yl}butyl)thieno[2,3-c]pyridine-2-carboxamide]	4.5 nM	6.8 nM		
COc1cccc(C(=O)N2CCC(CCCCNC(=O)c3cc4cnccc4[nH]3)CC2)c1OC [N-(4-{1-[(2,3-dimethoxyphenyl)carbonyl]piperidin-4-yl}butyl)-1H-pyrrolo[3,2-c]pyridine-2-carboxamide]	1.9 nM	20.8 nM		
COc1cccc(C(=O)N2CCC(CCCCNC(=O)c3ccc4nccn4c3)CC2)c1OC [N-(4-{1-[(2,3-dimethoxyphenyl)carbonyl]piperidin-4-yl}butyl)imidazo[1,2-a]pyridine-6-carboxamide]	2.9 nM	19.1 nM		
COc1cccc(C(=O)N2CCC(CCCCNC(=O)c3cc4ccncc4s3)CC2)c1OC [N-(4-{1-[(2,3-dimethoxyphenyl)carbonyl]piperidin-4-yl}butyl)thieno[2,3-c]pyridine-2-carboxamide]	5.6 nM	16.9 nM		
O=C(NCCCCC1CCN(C(=O)c2ccc(Cl)cc2Cl)CC1)c1cc2cnccc2[nH]1 [N-(4-{1-[(2,4-dichlorophenyl)carbonyl]piperidin-4-yl}butyl)-1H-pyrrolo[3,2-c]pyridine-2-carboxamide]	12 nM	70 nM		
O=C(NCCCCC1CCN(C(=O)c2ccc(Cl)cc2Cl)CC1)c1ccc2nccn2c1 [N-(4-{1-[(2,4-dichlorophenyl)carbonyl]piperidin-4-yl}butyl)imidazo[1,2-a]pyridine-6-carboxamide]	14.4 nM	35.7 nM		
O=C(NCCCCC1CCN(C(=O)c2ccc(Cl)cc2Cl)CC1)c1cc2ccncc2s1 [N-(4-{1-[(2,4-dichlorophenyl)carbonyl]piperidin-4-yl}butyl)thieno[2,3-c]pyridine-2-carboxamide]	86.1 nM	41 nM		
O=C(NCCCCC1CCN(C(=O)c2ccc(F)cc2F)CC1)c1cc2cnccc2[nH]1 [N-(4-{1-[(2,4-difluorophenyl)carbonyl]piperidin-4-yl}butyl)-1H-pyrrolo[3,2-c]pyridine-2-carboxamide]	8.1 nM	39.3 nM		
O=C(NCCCCC1CCN(C(=O)c2ccc(F)cc2F)CC1)c1ccc2nccn2c1 [N-(4-{1-[(2,4-difluorophenyl)carbonyl]piperidin-4-yl}butyl)imidazo[1,2-a]pyridine-6-carboxamide]	25.6 nM	7.1 nM		
O=C(NCCCCC1CCN(C(=O)c2ccc(F)cc2F)CC1)c1cc2ccncc2s1 [N-(4-{1-[(2,4-difluorophenyl)carbonyl]piperidin-4-yl}butyl)thieno[2,3-c]pyridine-2-carboxamide]	13.5 nM	12.8 nM		
COc1ccc(S(=O)(=O)N2CCC(CCCCNC(=O)c3cc4cnccc4[nH]3)CC2)c(OC)c1 [N-(4-{1-[(2,4-dimethoxybenzene)sulfonyl]piperidin-4-yl}butyl)-1H-pyrrolo[3,2-c]pyridine-2-carboxamide]	1.7 nM	19.1 nM		
COc1ccc(C(=O)N2CCC(CCCCNC(=O)c3cc4cnccc4[nH]3)CC2)c(OC)c1 [N-(4-{1-[(2,4-dimethoxyphenyl)carbonyl]piperidin-4-yl}butyl)-1H-pyrrolo[3,2-c]pyridine-2-carboxamide]	3.3 nM	67.1 nM		
COc1ccc(C(=O)N2CCC(CCCCNC(=O)c3ccc4nccn4c3)CC2)c(OC)c1 [N-(4-{1-[(2,4-dimethoxyphenyl)carbonyl]piperidin-4-yl}butyl)imidazo[1,2-a]pyridine-6-carboxamide]	3.3 nM	22.2 nM		
O=C(NCCCCC1CCN(C(=O)c2cc(Cl)ccc2Cl)CC1)c1cc2cnccc2[nH]1 [N-(4-{1-[(2,5-dichlorophenyl)carbonyl]piperidin-4-yl}butyl)-1H-pyrrolo[3,2-c]pyridine-2-carboxamide]	6.1 nM	51.3 nM		
O=C(NCCCCC1CCN(C(=O)c2cc(Cl)ccc2Cl)CC1)c1ccc2nccn2c1 [N-(4-{1-[(2,5-dichlorophenyl)carbonyl]piperidin-4-yl}butyl)imidazo[1,2-a]pyridine-6-carboxamide]	5.5 nM	10.2 nM		
O=C(NCCCCC1CCN(C(=O)c2cc(Cl)ccc2Cl)CC1)c1cc2ccncc2s1 [N-(4-{1-[(2,5-dichlorophenyl)carbonyl]piperidin-4-yl}butyl)thieno[2,3-c]pyridine-2-carboxamide]	7.1 nM	16 nM		
O=C(NCCCCC1CCN(S(=O)(=O)c2cc(F)ccc2F)CC1)c1cc2cnccc2[nH]1 [N-(4-{1-[(2,5-difluorobenzene)sulfonyl]piperidin-4-yl}butyl)-1H-pyrrolo[3,2-c]pyridine-2-carboxamide]	5.8 nM	11.1 nM		
O=C(NCCCCC1CCN(C(=O)c2cc(F)ccc2F)CC1)c1ccc2nccn2c1 [N-(4-{1-[(2,5-difluorophenyl)carbonyl]piperidin-4-yl}butyl)imidazo[1,2-a]pyridine-6-carboxamide]	5 nM	5 nM		
COc1ccc(OC)c(S(=O)(=O)N2CCC(CCCCNC(=O)c3cc4cnccc4[nH]3)CC2)c1 [N-(4-{1-[(2,5-dimethoxybenzene)sulfonyl]piperidin-4-yl}butyl)-1H-pyrrolo[3,2-c]pyridine-2-carboxamide]			1.8 nM	28.4 nM

Reference: US9555039B2, “Piperidine derivatives and compositions for the inhibition of nicotinamide phosphoribosyltransferase (NAMPT)” (Forma TM, LLC., priority 2011, dated 2017)
